The subject of assay [1] is primary human neutrophils. The assay can be described thus: Extracellular DNA release by PMA-activated human neutrophils. The assay is classed as cell-based. The settings on record: 1 μM GSK484 for 1 h, then 1 μM PMA for 4 hours; FIG. 5A. The method, then:
FIGS. 5A-J. Class I/II HDACs drive NET formation. • A) Quantification of extracellular DNA released by neutrophils treated, or not, with 1 μM GSK484 for 1 h and then stimulated with 1 μM PMA for 4 hours. Unstimulated, neutrophils not treated with drugs were used as a control. • B) Freshly purified human neutrophils were treated with the indicated HDAC inhibitors at different doses (0.08, 0.4, 2 and 10 μM) for 1 hour. Extracellular DNA release was assessed in the supernatant 3 hours after PMA stimulation. The dotted line represents the amount of DNA released from neutrophils treated with PMA alone. […] NETosis induction was measured as level of anti-CitH3 fluorescent signal. […] NET induction was measured as in (C). […] NETosis induction was measured as level of anti-CitH3 fluorescent signal. […] NET induction was measured as in (F). • H, I) Freshly isolated neutrophils from two different donors were treated with different doses of ricolinostat, citarinostat (10, 2, 0.4, 0.08 μM) or GSK484 (10, 5, 2 μM) for 1 h and then stimulated with 1 μM PMA. NET induction was measured as level of anti-CitH3 fluorescent signal (H) and by microscopy as number of cells positive for CitH3 signal per field of view (FOV) (I). […] NET induction was measured as level of anti-CitH3 fluorescent signal. […] Statistics were calculated using One-way ANOVA (A, E, I) and Two-way ANOVA (B, F, G, H, L). […]

In another assay the test system is Murine neutrophils. The assay can be described thus: Phagocytosis assay with fluorescent E. coli. As to conditions: ricolinostat 10 μM, fluorescent E. coli 1 h; FIG. 1H. The class given is cell-based, mouse. The method, then: FIGS. 1A-H. Class I/II HDACs drive NET formation • (A and B) Freshly purified human (A) or mouse (B) neutrophils were treated with the indicated HDAC inhibitors at different doses (10, 2, 0.4, 0.08 μM), or with GSK484 (10 μM), for 1 h and then stimulated with 1 μM PMA for 3 h. Cells were fixed and stained with anti-citrullinated histone H3 (CitH3) antibody. NETosis induction was measured as the level of anti-CitH3 fluorescent signal. PMA alone represents 100% of NET induction. “-”: Cells treated with the highest dose of the indicated drug but not activated with PMA. • (C and D) Human neutrophils were treated, or not, with ricolinostat or GSK484 and then stimulated with 1 μM PMA. NETosis induction was measured as area of nuclei stained with DAPI. (C) 3D reconstruction of nuclei in each treatment (grid size 7.8 μm). (D) Quantification of DAPI signal from multiple fields of view (D) (n=9 for unstimulated, not pretreated with any drug [NT] and ricolinostat, n=7 for GSK484). • (E and F) Human neutrophils were treated as in (C-D), and immunoblot analysis of the indicated proteins was performed. Relative quantification of band intensity was analyzed with ImageJ software (F). White violins plots depict the quantification of histone H3 acetylation; red violin plots depict the quantification of histone H3 citrullination. […] ROS production was measured by luminescence with luminol-HRP. […]

For the molecule `COc1cc(C(=O)N2CC[C@@H](O)[C@@H](N)C2)cc2nc(-c3cc4ccccc4n3CC3CC3)n(C)c12` [GSK484], in assay [1], the “extracellular DNA released by PMA-treated neutrophils” value is given as “significant decrease”.

Regarding `O=C(CCCCCCNC(=O)c1cnc(N(c2ccccc2)c2ccccc2)nc1)NO` [ricolinostat], the “bacterial phagocytosis (percentage of neutrophils positive for E. coli)” value in the assay on Murine neutrophils is listed as “excluded that ricolinostat administration altered”.

Source of the values: patent US20240366594A1, “Small Molecule Inhibitors of Formation of Neutrophil-Derived Extracellular Traps (NETosis) and Uses Thereof” (The Brigham and Women's Hospital, Inc., priority 2021, published 2024).
